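Cultured in 96-well plates, cells were exposed to test compound for 48 hours across five concentrations. Abbreviation: GI50, concentration required for 50% inhibition of growth.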 The source made the active and inactive calls. No stated cut-off is given here; in the data, active = GI50 up to about 1.1 µM and inactive = higher.
How the values were obtained:
Test in all cases: growth of human tumour cells (NCI), 48 h
DLD-1 = test system: DLD-1
NCI-H522 = test system: NCI-H522
M19-MEL = test system: M19-MEL
SNB-75 = test system: SNB-75
OVCAR-4 = test system: OVCAR-4
IGROV-1 = test system: IGROV-1
HOP-62 = test system: HOP-62
DMS-273 = test system: DMS-273
NCI-H460 = test system: NCI-H460
786-0 = test system: 786-0
CCRF-CEM = test system: CCRF-CEM
NCI-H226 = test system: NCI-H226
OVCAR-5 = test system: OVCAR-5
ACHN = test system: ACHN
Malme-3M = test system: Malme-3M
KM12 = test system: KM12
SK-MEL-2 = test system: SK-MEL-2
MOLT-4 = test system: MOLT-4
NCI-H23 = test system: NCI-H23
UACC-62 = test system: UACC-62
SF-539 = test system: SF-539
HOP-18 = test system: HOP-18
SK-OV-3 = test system: SK-OV-3
OVCAR-3 = test system: OVCAR-3
M14 = test system: M14
SK-MEL-5 = test system: SK-MEL-5
SR = test system: SR
UO-31 = test system: UO-31
COLO 205 = test system: COLO 205
KM-20L2 = test system: KM-20L2
A498 = test system: A498
HT-29 = test system: HT-29
A549 = test system: A549
HCC 2998 = test system: HCC 2998
SNB-19 = test system: SNB-19
RPMI-8226 = test system: RPMI-8226
HCT-15 = test system: HCT-15
UACC-257 = test system: UACC-257
SNB-78 = test system: SNB-78
HCT-116 = test system: HCT-116
HL-60 = test system: HL-60
EKVX = test system: EKVX
SN12C = test system: SN12C
SW-620 = test system: SW-620
CAKI-1 = test system: CAKI-1
K562 = test system: K562
LXFL 529 = test system: LXFL 529
OVCAR-8 = test system: OVCAR-8
TK-10 = test system: TK-10
SF-295 = test system: SF-295
U-251 = test system: U-251
SF-268 = test system: SF-268
LOX IMVI = test system: LOX IMVI
DMS-114 = test system: DMS-114
XF498 = test system: XF498
SK-MEL-28 = test system: SK-MEL-28

For `C/C(CN1C(=O)c2ccccc2C1=O)=N\NS(=O)(=O)c1ccc(C)cc1`, the GI50 (DLD-1) was > 100 µM (inactive), the GI50 (NCI-H522) was > 100 µM (inactive) and the GI50 (M19-MEL) was > 100 µM (inactive). For the same compound, the GI50 (SNB-75) was > 100 µM (inactive), the GI50 (OVCAR-4) was > 100 µM (inactive) and the GI50 (IGROV-1) was > 100 µM (inactive). The GI50 (HOP-62) was > 100 µM (inactive), the GI50 (DMS-273) was > 100 µM (inactive) and the GI50 (NCI-H460) was > 100 µM (inactive). For the same compound, the GI50 (786-0) was > 100 µM (inactive), the GI50 (CCRF-CEM) was > 100 µM (inactive) and the GI50 (NCI-H226) was > 100 µM (inactive). The GI50 (OVCAR-5) was > 100 µM (inactive), the GI50 (ACHN) was > 100 µM (inactive) and the GI50 (Malme-3M) was > 100 µM (inactive). For the same compound, the GI50 (KM12) was > 100 µM (inactive), the GI50 (SK-MEL-2) was > 100 µM (inactive) and the GI50 (MOLT-4) was > 100 µM (inactive). For the same compound, the GI50 (NCI-H23) was > 100 µM (inactive), the GI50 (UACC-62) was > 100 µM (inactive) and the GI50 (SF-539) was > 100 µM (inactive). The GI50 (HOP-18) was > 100 µM (inactive), the GI50 (SK-OV-3) was > 100 µM (inactive) and the GI50 (OVCAR-3) was > 100 µM (inactive). The GI50 (M14) was > 100 µM (inactive), the GI50 (SK-MEL-5) was > 100 µM (inactive) and the GI50 (SR) was > 100 µM (inactive). The GI50 (UO-31) was > 100 µM (inactive), the GI50 (COLO 205) was > 100 µM (inactive) and the GI50 (KM-20L2) was > 100 µM (inactive). The GI50 (A498) was > 100 µM (inactive), the GI50 (HT-29) was > 100 µM (inactive) and the GI50 (A549) was > 100 µM (inactive). The GI50 (HCC 2998) was > 100 µM (inactive), the GI50 (SNB-19) was > 100 µM (inactive) and the GI50 (RPMI-8226) was > 100 µM (inactive). For the same compound, the GI50 (HCT-15) was > 100 µM, the GI50 (UACC-257) was > 100 µM (inactive) and the GI50 (SNB-78) was > 100 µM (inactive). For the same compound, the GI50 (HCT-116) was > 100 µM (inactive), the GI50 (HL-60) was > 100 µM (inactive) and the GI50 (EKVX) was > 100 µM (inactive). For the same compound, the GI50 (SN12C) was > 100 µM (inactive), the GI50 (SW-620) was > 100 µM (inactive) and the GI50 (CAKI-1) was > 100 µM (inactive). For the same compound, the GI50 (K562) was > 100 µM (inactive), the GI50 (LXFL 529) was > 100 µM (inactive) and the GI50 (OVCAR-8) was > 100 µM (inactive). The GI50 (TK-10) was > 100 µM (inactive), the GI50 (SF-295) was > 100 µM (inactive) and the GI50 (U-251) was > 100 µM (inactive).

With `Cc1ccc(-n2cc(/C(N)=N/O)c3ccccc3c2=O)cc1` the GI50 (NCI-H522) was > 100 µM (inactive), the GI50 (M19-MEL) was > 100 µM (inactive) and the GI50 (IGROV-1) was > 100 µM (inactive). For the same compound, the GI50 (HOP-62) was > 100 µM (inactive), the GI50 (DMS-273) was > 100 µM (inactive) and the GI50 (SF-268) was > 100 µM (inactive). The GI50 (LOX IMVI) was > 100 µM (inactive), the GI50 (NCI-H460) was > 100 µM (inactive) and the GI50 (786-0) was > 100 µM (inactive). For the same compound, the GI50 (CCRF-CEM) was > 100 µM (inactive), the GI50 (NCI-H226) was > 100 µM (inactive) and the GI50 (ACHN) was > 100 µM (inactive). The GI50 (Malme-3M) was > 100 µM (inactive), the GI50 (KM12) was > 100 µM (inactive) and the GI50 (MOLT-4) was > 100 µM (inactive). The GI50 (NCI-H23) was > 100 µM (inactive), the GI50 (UACC-62) was > 100 µM (inactive) and the GI50 (SF-539) was > 100 µM (inactive). The GI50 (SK-OV-3) was > 100 µM (inactive), the GI50 (OVCAR-3) was > 100 µM (inactive) and the GI50 (M14) was > 100 µM (inactive). For the same compound, the GI50 (SK-MEL-5) was > 100 µM (inactive), the GI50 (SR) was > 100 µM (inactive) and the GI50 (DMS-114) was > 100 µM (inactive). For the same compound, the GI50 (UO-31) was > 100 µM (inactive), the GI50 (COLO 205) was > 100 µM (inactive) and the GI50 (KM-20L2) was > 100 µM (inactive). For the same compound, the GI50 (HT-29) was > 100 µM (inactive), the GI50 (A549) was > 100 µM (inactive) and the GI50 (HCC 2998) was > 100 µM (inactive). For the same compound, the GI50 (SNB-19) was > 100 µM (inactive), the GI50 (XF498) was > 100 µM (inactive) and the GI50 (RPMI-8226) was > 100 µM (inactive). For the same compound, the GI50 (SK-MEL-28) was > 100 µM (inactive), the GI50 (HCT-15) was > 100 µM and the GI50 (UACC-257) was > 100 µM (inactive). For the same compound, the GI50 (HCT-116) was > 100 µM (inactive), the GI50 (HL-60) was > 100 µM (inactive) and the GI50 (EKVX) was > 100 µM (inactive). The GI50 (SN12C) was > 100 µM (inactive), the GI50 (SW-620) was > 100 µM (inactive) and the GI50 (K562) was > 100 µM (inactive). The GI50 (LXFL 529) was > 100 µM (inactive), the GI50 (OVCAR-8) was > 100 µM (inactive) and the GI50 (TK-10) was > 100 µM (inactive). The GI50 (SF-295) was > 100 µM (inactive) and the GI50 (U-251) was > 100 µM (inactive).

From ChEMBL document CHEMBL1201862, “PubChem BioAssay data set” (2004)
